From patent US3965109A, “Certain aryl amino pyridines” (priority 1971, dated 1976)

Experiments:
Format in all cases: in vivo
[1] = test system: Phytophthora infestans (tomato); conditions: 100 ppm spray and drench; 3 days
Uncinula necator (vine) = assay: Fungicidal test against foliar disease D (foliage spray plus soil drench); conditions: 100 ppm spray and drench; 10 days
[2] = test system: Plasmopara viticola (vine); assay: Fungicidal test against foliar disease C (foliage spray plus soil drench); conditions: 100 ppm spray and drench; 10 days
[3] = test system: Puccinia recondita (wheat); assay: Fungicidal test against foliar disease A (foliage spray plus soil drench); conditions: 100 ppm spray and drench; 10 days
[4] = test system: Piricularia oryzae (rice); conditions: 100 ppm spray and drench; 7 days
Lettuce = assay: Herbicidal test, pre- and post-emergence
Sugar beet = assay: Further herbicidal test, various rates; conditions: 5 lb/acre; scale 0 to 5 (complete kill)
[5] = test system: Musca domestica (houseflies); assay: Pest toxicity test, contact test; conditions: 0.1% by weight; milk/sugar; 2 days; flies sprayed directly
Megoura viceae = assay: Pest toxicity test; conditions: 0.1% by weight; broad bean; 2 days
Aphis fabae = assay: Pest toxicity test; conditions: 0.1% by weight; broad bean; 2 days
Carrot = assay: Further herbicidal test, various rates; conditions: 5 lb/acre; scale 0 to 5 (complete kill)
Kale = assay: Further herbicidal test, various rates; conditions: 5 lb/acre; scale 0 to 5 (complete kill)
[6] = test system: Aedes aegypti (mosquito adults); assay: Pest toxicity test; conditions: 0.01% by weight; plywood; 1 day
[7] = test system: Phaedon cochleariae (mustard beetles); assay: Pest toxicity test
Tomato = assay: Herbicidal test, pre- and post-emergence
Rice = assay: Further herbicidal test, various rates; conditions: 5 lb/acre; scale 0 to 5 (complete kill)
[8] = test system: Aedes aegypti (mosquito larvae); assay: Pest toxicity test; conditions: for Mortality grading (kill): 0.01% by weight, water, 1 day
[9] = test system: Pieris brassicae (cabbage white caterpillars); assay: Pest toxicity test; conditions: 0.1% by weight, 2 days
Onion = assay: Further herbicidal test, various rates; conditions: 5 lb/acre; scale 0 to 5 (complete kill)
Barley = assay: Further herbicidal test, various rates; conditions: 5 lb/acre; scale 0 to 5 (complete kill)
Pea = assay: Further herbicidal test, various rates; conditions: 5 lb/acre; scale 0 to 5 (complete kill)
Wheat = assay: Herbicidal test, pre- and post-emergence
[10] = test system: Tetranychus telarius (red spider mites, adults); assay: Pest toxicity test; conditions: 0.1% by weight; French bean; 3 days
Oat = assay: Further herbicidal test, various rates; conditions: 5 lb/acre; scale 0 to 5 (complete kill)
[11] = test system: Plutella maculipennis (diamond back moth larvae); assay: Pest toxicity test
Maize = assay: Herbicidal test, pre- and post-emergence
[12] = test system: Tetranychus telarius (red spider mites, eggs); assay: Pest toxicity test; conditions: 0.1% by weight; French bean; 3 days
[13] = 10 lb/acre (11.2 kg/ha), scale 0 (no effect) to 3 (complete kill)
[14] = 10 kg/ha, scale 0 to 3 (complete kill)
[15] = 0.1% by weight, mustard/paper, 2 days

## Fc1nc(F)c(Cl)c(Nc2cccc(C(F)(F)F)c2)c1Cl [Compound 17, 3,5-Dichloro-2,6-difluoro-4(3-trifluoromethylanilino)pyridine]
[1]
  Amount of disease grading, disease B: 1 (26 to 60)
Uncinula necator (vine)
  Amount of disease grading, disease D: 0 (61 to 100)
[2]
  Amount of disease grading, disease C: 3 (0 to 5)
[3]
  Amount of disease grading, disease A: 0 (61 to 100)
[4]
  Amount of disease grading, disease E: 0 (61 to 100)

## CN(C)S(=O)(=O)c1cc(Cl)c(Nc2c(Cl)c(F)nc(F)c2Cl)cc1Cl [Compound 31, 3,5-Dichlor-2,6-difluoro-4(2,5-dichlor-4-N,N-dimethylsulphamoylanilino)pyridine]
[1]
  Amount of disease grading, disease B (Table 4): 0 (61 to 100)
Uncinula necator (vine)
  Amount of disease grading, disease D (Table 4): 3 (0 to 5)
[2]
  Amount of disease grading, disease C (Table 4): 3 (0 to 5)
[3]
  Amount of disease grading, disease A (Table 4): 2 (6 to 25)
[4]
  Amount of disease grading, disease E (Table 4): 0 (61 to 100)

## Fc1nc(F)c(Cl)c(Nc2c(F)c(F)c(F)c(F)c2F)c1Cl [Compound 10, 3,5-Dichloro-2,6-difluoro-4(pentafluoroanilino)pyridine]
Lettuce; [13]
  Damage to plants, post-emergence: 3
  Damage to plants, pre-emergence: 2
Sugar beet
  Damage to plants, post-emergence: 3
  Damage to plants, pre-emergence: 0
[5]
  Mortality grading (kill), contact test: 0 (O represents less than 30% kill)
Megoura viceae
  Mortality grading (kill): 0 (O represents less than 30% kill)
Aphis fabae
  Mortality grading (kill): 0 (O represents less than 30% kill)
Carrot
  Damage to plants, post-emergence: 2
  Damage to plants, pre-emergence: 1
Kale
  Damage to plants, post-emergence: 3
  Damage to plants, pre-emergence: 1
[6]
  Mortality grading (kill): 2 (2 represents 60 - 90% kill)
[7]; in vivo
  Mortality grading (kill): 0 (key: O represents less than 30% kill; 1 represents 30 - 49% kill; 2 represents 60 - 90% kill; 3 represents over 90% kill; C indicates a chemosterilant effect.; A indicates an antifeeding effect.)
Tomato; [13]
  Damage to plants, post-emergence: 3
  Damage to plants, pre-emergence: 1
Rice
  Damage to plants, post-emergence: 0
[8]
  Mortality grading (kill): 2 (2 represents 60 - 90% kill)
[9]
  Mortality grading (kill): 0 (O represents less than 30% kill)
Onion
  Damage to plants, post-emergence: 2
  Damage to plants, pre-emergence: 0
Barley
  Damage to plants, post-emergence: 0
  Damage to plants, pre-emergence: 3
Pea
  Damage to plants, post-emergence: 0
  Damage to plants, pre-emergence: 3
Wheat; [13]
  Damage to plants, post-emergence: 1
  Damage to plants, pre-emergence: 0
[10]
  Mortality grading (kill): 3 (3 represents over 90% kill)
Oat
  Damage to plants, post-emergence: 0
  Damage to plants, pre-emergence: 0
[11]; in vivo
  Mortality grading (kill): 0 (key: O represents less than 30% kill; 1 represents 30 - 49% kill; 2 represents 60 - 90% kill; 3 represents over 90% kill; C indicates a chemosterilant effect.; A indicates an antifeeding effect.)
Maize; [13]
  Damage to plants, post-emergence: 0
  Damage to plants, pre-emergence: 0

## O=[N+]([O-])c1ccc(Nc2c(F)c(F)nc(F)c2Cl)c([N+](=O)[O-])c1 [Compound 38, 3-Chloro-4(2,4-dinitroanilino)-2,5,6-trifluoropyridine]
[12]
  Mortality grading (kill): 3 (3 represents over 90% kill)
Lettuce; [14]
  Damage to plants, post-emergence: 3
  Damage to plants, pre-emergence: 3
[5]
  Mortality grading (kill), contact test: 0 (O represents less than 30% kill)
Megoura viceae
  Mortality grading (kill): 0 (O represents less than 30% kill)
Aphis fabae
  Mortality grading (kill): 0 (O represents less than 30% kill)
Uncinula necator (vine)
  Amount of disease grading, disease D (Table 4): 3 (0 to 5)
[6]
  Mortality grading (kill): 0 (O represents less than 30% kill)
[7]; in vivo
  Mortality grading (kill): 0 (key: O represents less than 30% kill; 1 represents 30 - 49% kill; 2 represents 60 - 90% kill; 3 represents over 90% kill; C indicates a chemosterilant effect.; A indicates an antifeeding effect.)
Tomato; [14]
  Damage to plants, post-emergence: 3
  Damage to plants, pre-emergence: 3
[2]
  Amount of disease grading, disease C (Table 4): 3 (0 to 5)
[8]
  Mortality grading (kill): 3 (3 represents over 90% kill)
[9]
  Mortality grading (kill): 3 (3 represents over 90% kill)
[3]
  Amount of disease grading, disease A (Table 4): 1 (26 to 60)
Wheat; [14]
  Damage to plants, post-emergence: 0
  Damage to plants, pre-emergence: 2
[4]
  Amount of disease grading, disease E (Table 4): 2 (6 to 25)
[10]
  Mortality grading (kill): 3 (3 represents over 90% kill)
[11]; in vivo
  Mortality grading (kill): 0 (key: O represents less than 30% kill; 1 represents 30 - 49% kill; 2 represents 60 - 90% kill; 3 represents over 90% kill; C indicates a chemosterilant effect.; A indicates an antifeeding effect.)
Maize; [14]
  Damage to plants, post-emergence: 0
  Damage to plants, pre-emergence: 0

## CNC(=O)N(c1c(F)c(F)c(C#N)c(F)c1F)c1c(Cl)c(F)nc(OC)c1Cl [Compound 46]
[12]
  Mortality grading (kill): 0 (O represents less than 30% kill)
[5]
  Mortality grading (kill), contact test: 0 (O represents less than 30% kill)
Megoura viceae
  Mortality grading (kill): 0 (O represents less than 30% kill)
Aphis fabae
  Mortality grading (kill): 0 (O represents less than 30% kill)
[6]
  Mortality grading (kill): 0 (O represents less than 30% kill)
[7]; [15]
  Mortality grading (kill): 0 (O represents less than 30% kill)
[8]
  Mortality grading (kill): 3 (3 represents over 90% kill)
[9]
  Mortality grading (kill): 0 (O represents less than 30% kill)
[10]
  Mortality grading (kill): 2 (2 represents 60 - 90% kill)
[11]; [15]
  Mortality grading (kill): 0 (O represents less than 30% kill)

## Fc1nc(F)c(Cl)c(Nc2ccccc2)c1Cl [Compound 2, 4-Anilino-3,5-dichloro-2,6-difluoropyridine]
[12]
  Mortality grading (kill): 0 (O represents less than 30% kill)
[5]
  Mortality grading (kill), contact test: 0 (O represents less than 30% kill)
Megoura viceae
  Mortality grading (kill): 0 (O represents less than 30% kill)
Aphis fabae
  Mortality grading (kill): 0 (O represents less than 30% kill)
[6]
  Mortality grading (kill): 0 (O represents less than 30% kill)
[7]; [15]
  Mortality grading (kill): 0 (O represents less than 30% kill)
[8]
  Mortality grading (kill): 0 (O represents less than 30% kill)
[9]
  Mortality grading (kill): 0 (O represents less than 30% kill)
[10]
  Mortality grading (kill): 3 (3 represents over 90% kill)
[11]; [15]
  Mortality grading (kill): 0 (O represents less than 30% kill)

## O=[N+]([O-])c1cc([N+](=O)[O-])c(Nc2c(F)c(F)nc(F)c2F)cc1F [Compound 39, 4(2,4-Dinitro-5-fluoranilino)tetrafluoropyridine]
[1]
  Amount of disease grading, disease B (Table 4): 2 (6 to 25)
Uncinula necator (vine)
  Amount of disease grading, disease D (Table 4): 0 (61 to 100)
[2]
  Amount of disease grading, disease C (Table 4): 3 (0 to 5)
[3]
  Amount of disease grading, disease A (Table 4): 1 (26 to 60)
[4]
  Amount of disease grading, disease E (Table 4): 1 (26 to 60)

## O=[N+]([O-])c1ccc(Nc2c(Cl)c(F)nc(F)c2Cl)cc1C(F)(F)F [Compound 36, 3,5-Dichloro-2,6-difluoro-4(4-nitro-3-trifluoromethylanilino) pyridine]
[1]
  Amount of disease grading, disease B (Table 4): 2 (6 to 25)
Uncinula necator (vine)
  Amount of disease grading, disease D (Table 4): 0 (61 to 100)
[2]
  Amount of disease grading, disease C (Table 4): 3 (0 to 5)
[3]
  Amount of disease grading, disease A (Table 4): 2 (6 to 25)
[4]
  Amount of disease grading, disease E (Table 4): 1 (26 to 60)

## Fc1nc(F)c(Cl)c(Nc2c(Cl)cc(Cl)cc2Cl)c1Cl [Compound 7, 3,5-Dichloro-2,6-difluoro-4(2,4,6-trichloroanilino)pyridine]
[1]
  Amount of disease grading, disease B: 0 (61 to 100)
Uncinula necator (vine)
  Amount of disease grading, disease D: 0 (61 to 100)
[2]
  Amount of disease grading, disease C: 0 (61 to 100)
[8]; in vivo
  abnormal growth effects in larva of mosquitos: abnormal growth effects
[3]
  Amount of disease grading, disease A: 2 (6 to 25)
[4]
  Amount of disease grading, disease E: 0 (61 to 100)
